According to patent publication US11753445B2, “Therapeutic peptides” (COHBAR, INC., priority 2016, dated 2023):

What was measured:
[1] = test system: 3T3-L1 Adipocytes; assay: Free fatty acid levels in cultured mouse 3T3-L1 adipocytes, isoproterenol stimulated (Example 2); type: cell-based; details: test peptides 25 μM; isoproterenol 1 nM
How it was run: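 Release of free fatty acids, read at 540 nm, was stimulated with 1 nM isoproterenol for 3 h in mouse 3T3-L1 adipocytes (12–17 days of differentiation). Cells were pre-exposed to 25 μM peptide for 18–20 h plus 1 h, with peptide kept in during stimulation. Values are background-subtracted and normalised to isoproterenol alone.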

[2] = Stability in mouse plasma, peptides 10 uM (Example 15); type: in vitro ADME; details: mouse plasma 37° C., peptide 10 uM; for remaining at 0.25 h, 10 uM / remaining at 0.5 h, 10 uM / remaining at 1 h, 10 uM / remaining at 2 h, 10 uM / remaining at 3 h, 10 uM: pooled mouse plasma; for remaining at 0.25 h, 10 uM: 15 min, read-out: % Remaining at Each Time Point: 15 min; for remaining at 0.5 h, 10 uM: 30 min, read-out: % Remaining at Each Time Point: 30 min; for remaining at 1 h, 10 uM: 60 min, read-out: % Remaining at Each Time Point: 60 min; for remaining at 2 h, 10 uM: 120 min, read-out: % Remaining at Each Time Point: 120 min; for remaining at 3 h, 10 uM: 180 min, read-out: % Remaining at Each Time Point: 180 min
Method: Peptides (10 uM) were incubated in pooled mouse plasma at 37° C. and samples were removed and immediately analyzed for the concentration of intact peptide by LC/MS/MS over the course of 3 hours. The percent of peptide remaining in plasma at each time point was calculated relative to the initial peak area (Table 13).

[3] = test system: Diet Induced Obese (DIO) mice; assay: Body weight, blood glucose and fat mass in Diet Induced Obese mice, 10 days (Example 6); type: in vivo, Male C57BL/6 mice; details: male DIO mice; 10 days twice daily intraperitoneal 15 mg/kg; N = 8; mean
Method: Animals were randomized to treatment groups based on blood glucose levels and body weight. The peptides of the invention were administered to two groups of male DIG mice once or twice daily by subcutaneous or intraperitoneal injection at a dose of 15 mg/kg/dose for 10 days (N=8 animals per treatment group). An additional group of male DIG mice (n=8) received vehicle (water or saline) alone. Body weight, blood glucose levels and food intake were monitored. Body mass distribution (fat vs lean) was determined by quantitative whole body NMR prior to dosing and at the end of dosing.

Substance	Free Fatty Acid Levels in 3T3-L1 Adipocytes Expressed as a Percent of Isoproterenol Control: Percent of Control Value [1] [%]	% Remaining at Each Time Point: 0 min [2] [%]	remaining at 0.25 h, 10 uM [2] [%]	remaining at 0.5 h, 10 uM [2] [%]	remaining at 1 h, 10 uM [2] [%]	remaining at 2 h, 10 uM [2] [%]	remaining at 3 h, 10 uM [2] [%]	Difference from Vehicle Control: Decrease from Baseline in Blood Glucose [3] [mg/dL]	Difference from Vehicle Control: Decrease from Baseline in Body Weight (%) [3] [%]	Difference from Vehicle Control: Decrease from Baseline in Fat Mass [3] [g]
H-RWQEEQYIFEPR-OH [compound 264]	63.2	100	76.7	68.2	54.5	59.4	56.1	–	–	–
H-RWQEMGYIFYPRKL-OH [compound 268]	41.9	100	76.1	49.5	20.3	0.48	0	–	–	–
H-RWQEMNYIAEPR-OH [compound 251]	83.7	100	70.6	47.5	44.4	38.1	30.2	-34.3	−0.55	0.02
H-RWQEMNYIAYPR-OH [compound 250]	83.0	100	63.2	54.1	35.9	20	11.7	–	–	–
H-RWQEMNYIFEPR-OH [compound 249]	81.3	100	46.7	40.5	28.3	15.8	11.1	–	–	–
H-WQEMGYIFYPRKL-OH [compound 269]	59.2	100	70	45.8	17.2	2.64	0.43	–	–	–
H-WQEMNYIFYP-OH [compound 285]	96.0	100	38.5	16.7	9.17	1.76	0.87	–	–	–
H-WQEMNYIFYPR-OH [compound 284]	97.1	100	75.3	60.1	41.1	22.1	13.7	–	–	–
